Patent US9932339B2, “Helquats with heteroaromatic substituents, preparation thereof, and use thereof as G-quadruplex stabilizers” (USTAV ORGANICKE CHEMIE A BIOCHEMIE AV CR, V.V.I., priority 2014, dated 2018)

Tests used:
c-myc protein = experiment: Immunodetection of protein c-myc in HGC-27 cell lysates (Western blot); format: cell-based, human; conditions: 50 μmol · l^−1, 24 hour incubation, normalized to β-actin
Experimental: Determination of changes in c-myc protein expression (transcription factor) in cell lysates prepared from tumor cell line HGC-27 after treatment with test helquats (Tab. 7) was carried out by immunodetection after separation of proteins according to their size by gel electrophoresis (SDS-PAGE) and blotting.
To determine the influence helquats on expression of c-myc protein, the cells were cultured under standard conditions and in the exponential growth phase were seeded into flasks at a density of 25,000 cells/cm^2. The next day selected helquats were added at a concentration of 50 μmol·l^−1. After 24 hour incubation, the cell pellets were obtained and, after addition of RIPA buffer with protease inhibitors (PrIC) and phosphatases (PhIC) (for composition see Tab. 8) cell lysates were prepared. 150 μl of RIPA buffer was used for 10^7 cells. Protein concentrations in the lysates were measured by BCA method. Separation of proteins in the lysates was carried out on a 12% denaturing polyacrylamide gel. The separated proteins were transferred to PVDF membrane by Western blotting.
Incubation with primary mouse monoclonal antibody against the protein c-myc (dilution 1:1000 in “SignalBoost” reagent) was carried out overnight at 4° C., and then with the primary mouse anti-β-actin (1:5000 dilution in 5% milk in TBS-T buffer) at room temperature for 2 hours. Subsequently, the secondary horse monoclonal antibody conjugated to horseradish peroxidase (diluted 1:2000 in 5% milk in TBS-T buffer) binding to mouse IgG antibody was applied. C-myc proteins and β-actin bound to the membrane were visualized using detection kit (SuperSignal® West Femto Maximum Sensitivity Substrate, Cat. No. 34095, Thermo Fisher Scientific, Inc., USA) in the chemiluminescence detection system ImageQuant LAS 4000 Mini (Cat. No. 28-9558-13, GE Healthcare Life Sciences, USA). The amount of protein was quantified by densitometry in Quantity One software. The amount of c-myc in the samples was normalized to β-actin, and subsequently related to a control sample.

[1] = test system: G-quadruplex in promoter region of the c-myc gene (NHE III1 segment); experiment: Dual luciferase analysis with plasmid pGL4.10-myc (luc2) in HGC-27 cells; format: cell-based, human; conditions: Homo sapiens; for inhibition at 50 µM: HGC-27, text summary of tab. 5 (50 μmol·l^−1), read-out: inhibition of expression of firefly luciferase as compared to control; for activity at 50 µM: helquat 50 μmol · l^−1, HGC-27, firefly normalized to Renilla, 24 hours after transfection, read-out: luciferase expression relative to control (control = 100%)
Outline: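 HGC-27 cells were co-transfected 1:1 with pGL4.10-myc (luc2), whose firefly luciferase is driven by an 860 bp c-myc regulatory region containing the G-quadruplex-forming NHE III1 segment, and pRL-TK Renilla control, using X-tremeGENE HP DNA in OptiMEM. Compounds were added two hours post-transfection; luminescence read 24 hours after transfection was Renilla-normalized and expressed relative to control.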

Structure (SMILES) | c-myc protein expression relative to control (control = 100%) (c-myc protein) | inhibition at 50 µM [1] | activity at 50 µM [1]
Cc1c(C)c2c(c3c1CC[n+]1ccc(/C=C/c4ccsc4)cc1-3)-c1cccc(/C=C/c3ccsc3)[n+]1CC2 (racemic) [MJB-C5-9, (rac)-8,9-dimethyl-2,13-bis((E)-2-(thiophen-3-yl)vinyl)-6,7,10,11-tetrahydrodipyrido[2,1-a:1′,2′-k][2,9]phenanthroline-5,12-diium trifluoromethanesulfonate] | 30% | > 20% | 75%
C(=C\c1ccc(-c2cccs2)s1)/c1cc[n+]2c(c1)-c1c(ccc3c1-c1cccc[n+]1CC3)CC2.O=S(=O)([O-])C(F)(F)F.O=S(=O)([O-])C(F)(F)F [LSA-C9-16, (E)-2-(2-([2,2′-bithiophen]-5-yl)vinyl)-6,7,10,11-tetrahydrodipyrido[2,1-a:1′,2′-k][2,9]phenanthroline-5,12-diium trifluoromethanesulfonate] | 28% | – | –
C(=C\c1cccc2c1oc1ccccc12)/c1cc[n+]2c(c1)-c1c(ccc3c1-c1cccc[n+]1CC3)CC2.O=S(=O)([O-])C(F)(F)F.O=S(=O)([O-])C(F)(F)F [LSA-C13-8, (E)-2-(2-(dibenzo[b,d]furan-4-yl)vinyl)-6,7,10,11-tetrahydrodipyrido[2,1-a:1′,2′-k][2,9]phenanthroline-5,12-diium trifluoromethanesulfonate] | 15% | > 40% | 58%
CCOC(=O)c1cc(/C=C/c2cc[n+]3c(c2)-c2c(c(C)c(C)c4c2-c2c5ccccc5cc[n+]2CC4)CC3)c[nH]1.O=S(=O)([O-])C(F)(F)F.O=S(=O)([O-])C(F)(F)F [MJA-C8-28, (E)-13-(2-(5-(ethoxycarbonyl)-1H-pyrrol-3-yl)vinyl)-6,7-dimethyl-4,5,8,9-tetrahydroisoquinolino[1,2-a]pyrido[1,2-k][2,9]phenanthroline-3,10-diium trifluoromethanesulfonate] | 23% | > 20% | 72%
CCCCCCc1ccc(/C=C/c2cc[n+]3c(c2)-c2c(c(C)c(C)c4c2-c2c5ccccc5cc[n+]2CC4)CC3)s1.O=S(=O)([O-])C(F)(F)F.O=S(=O)([O-])C(F)(F)F [MJA-C11-25, (E)-13-(2-(5-hexylthiophen-2-yl)vinyl)-6,7-dimethyl-4,5,8,9-tetrahydroisoquinolino[1,2-a]pyrido[1,2-k][2,9]phenanthroline-3,10-diium trifluoromethanesulfonate] | 66% | – | –
Cc1c(C)c2c(c3c1CC[n+]1ccc(/C=C/c4ccc(-n5c6ccccc6c6ccccc65)cc4)cc1-3)-c1c3ccccc3cc[n+]1CC2.O=S(=O)([O-])C(F)(F)F.O=S(=O)([O-])C(F)(F)F [MJA-C19-4, (E)-13-(4-(9H-carbazol-9-yl)styryl)-6,7-dimethyl-4,5,8,9-tetrahydroisoquinolino[1,2-a]pyrido[1,2-k][2,9]phenanthroline-3,10-diium trifluoromethanesulfonate] | 81% | – | –
Cc1nc[nH]c1/C=C/c1cc[n+]2c(c1)-c1c(c(C)c(C)c3c1-c1cccc(/C=C/c4[nH]cnc4C)[n+]1CC3)CC2.O=S(=O)([O-])C(F)(F)F.O=S(=O)([O-])C(F)(F)F [MJB-C5-11, 8,9-dimethyl-2,13-bis((E)-2-(4-methyl-1H-imidazol-5-yl)vinyl)-6,7,10,11-tetrahydrodipyrido[2,1-a:1′,2′-k][2,9]phenanthroline-5,12-diium trifluoromethanesulfonate] | 23% | – | –
Cc1nc[nH]c1/C=C/c1cc[n+]2c(c1)-c1c(ccc3c1-c1cc(/C=C/c4[nH]cnc4C)cc[n+]1CC3)CC2.O=S(=O)([O-])C(F)(F)F.O=S(=O)([O-])C(F)(F)F [PDA-C5-11, 2,15-bis((E)-2-(4-methyl-1H-imidazol-5-yl)vinyl)-6,7,10,11-tetrahydrodipyrido[2,1-a:1′,2′-k][2,9]phenanthroline-5,12-diium trifluoromethanesulfonate] | 80% | – | –
Cc1c(C)c2c(c3c1CC[n+]1ccc(/C=C/c4cccc5c4oc4ccccc45)cc1-3)-c1cc(/C=C/c3cccc4c3oc3ccccc34)cc[n+]1CC2.O=S(=O)([O-])C(F)(F)F.O=S(=O)([O-])C(F)(F)F [PDB-C13-8, 2,15-bis((E)-2-(dibenzo [b,d]furan-4-yl)vinyl)-8,9-dimethyl-6,7,10,11-tetrahydrodipyrido[2,1-a:1′,2′-k][2,9]phenanthroline-5,12-diium trifluoromethanesulfonate] | 83% | – | –
Cc1c(C)c2c(c3c1CC[n+]1ccc4ccccc4c1-3)-c1cccc(/C=C/c3cccc4c3oc3ccccc34)[n+]1CC2.O=S(=O)([O-])C(F)(F)F.O=S(=O)([O-])C(F)(F)F [VDJA-C13-8, (E)-11-(2-(dibenzo[b,d]furan-4-yl)vinyl)-6,7-dimethyl-4,5,8,9-tetrahydroisoquinolino[1,2-a]pyrido[1,2-k][2,9]phenanthroline-3,10-diium trifluoromethanesulfonate] | 77% | > 20% | 76%
